According to US4201784A, “Substituted 2-[2'-(5"-nitrofuryl-2")vinyl-and 4'-(5"-nitrofuryl-2"-1,3-butadieryl]quinoline-4-carboxylic acid amides and salts thereof” (Institut Organicheskogo Sinteza Akademii Nauk Latviiskoi SSR, priority 1977, dated 1980):
Entries after “also recorded” stand apart in the source; their conditions may differ. Like-named read-outs stand apart in the source and are kept apart here.

Key:
[1] = Biological availability, blood and liver of rats; format: in vivo; conditions: intraperitoneal 100 mg/kg
Protocol: The biological availability of giniquine was studied on common white male rats with a mass of 150-200 g and common white male mice with a mass of 25-30 g. The test began seven days after Ehrlich ascitic carcinoma was inoculated to the animals.
Giniquine was injected intraperitoneally in 100 mg/kg doses, using distilled water as a solvent. The animals were slaughtered at preset time intervals (5,15,30 and 60 minutes) and a biological material (blood and liver for rats and ascites for mice) was taken for analysis. To separate ascitic fluid from the tumor cells, ascites was centrifuged at 2000 r.p.m. for 10 minutes. The precipitate was washed with a mixture of physiological solution and heparin and was again centrifuged under the same conditions, 20% homogenates in distilled water were prepared from ascitic cells.
Giniquine was extracted from the biological material with chloroform.
The extraction procedure comprised the following stages: 0.1 ml of ethyl alcohol were added to 1 ml of tested sample and the solution was thoroughly mixed with 0.5 ml of a saturated potassium carbonate solution, then 4 ml of chloroform was added. Closed test tubes were vigorously shaken on a rocker for one hour. After the shaking, the samples were centrifuged at 5000 r.p.m. for ten minutes. The chloroform layer was used for analysis. Daylight was avoided.
Concentration of the preparation in biological samples was determined by spectrophotometry at 400 nm using molar absorption factor (ε0.10^-3 =36.04).
The results were expressed in μg/ml of sample. Minimum sensitivity of the method was 1.1 μg/ml.

[2] = system: cells of Ehrlich ascitic tumor; assay: In vitro incorporation of labeled precursors into DNA, RNA and protein of Ehrlich ascitic tumor cells; format: cell-based, mice; conditions: for activity at 100 µM: 1 h, 1.10^-4 M
Protocol: The effect of giniquine on biosynthesis of molecules in the in vitro tests was studied with suspensions of cells of Ehrlich ascitic tumor. The tests were conducted with common white mice of a mass of 18-20 g. Ascites was taken 7-8 days after the inoculation, dissolved with a cool Eagle medium (pH 7.4) containing 0.1% of heparin, and the cells were precipitated by centrifuging at 600 g. The cells were washed twice with the same medium, and a 10% suspension of the cells in the Eagle medium was prepared.
The effect of giniquine on biosynthesis of DNA, RNA and protein in the cells of Ehrlich ascitic tumor was assessed on the basis of incorporation of cells of specific labeled precursors into acid-insoluble fraction: 2-^14 C-thymidine, 2-^14 C-uridine and 2-^14 C-leucine, respectively.
The incubating medium contained, in a total volume of 2 ml, 100 mg of tumoral cells in the form of suspension, Eagle medium (pH 7.4), giniquine in a concentration of 1.10^-4 m and labeled precursors of nucleic acids and protein with a radioactivity corresponding to 0.1 μc. Control samples contained a corresponding volume of distilled water to replace the preparation solution.
The incubation was conducted in Warburg apparatus vessels at 37° C. for one hour. After the incubation, tumoral cells were fixed by adding cool 10% trichloracetic acid to the incubating medium (1:1). Concurrently a control sample without incubation was prepared, to which, before adding the cell suspension, was added 10% trichloracetic acid in the same ratio.
The precipitated cells were extracted for 20 minutes at 0° C. with 5% trichloroacetic acid. The samples were then filtered through millipore filters (HUFS, pore diameter 0.4 μ). The precipitate on the filter was washed twice with 5 ml of cool 5% trichloracetic acid and once with 5 ml of toluene. The filters were dried in the air and transferred into quartz flasks containing 10 ml of toluene scintillator. The radioactivity was determined by means of a liquid scintillation counter. The results were expressed in percent of the control.
It will be apparent from the Table that under the action of giniquine in a concentration of 1.10^-4 M the incorporation of labeled precursors of DNA, RNA and protein in acid-insoluble fraction of cells of Ehrlich ascitic tumor is disturbed compared to the control. […] The results of in vitro experiments study of the effect of 0.3 and 0.1% solutions of giniquine on the incorporation of 2-^14 C-thymidine in the acid-insoluble fraction (DNA) of Erlich cells are presented in Table 6.

Kidneys = assay: In vivo biosynthesis of DNA, RNA and protein in kidneys; set-up: species or system mice; conditions: 24 hours, intraperitoneal 28 mg/kg
Protocol: The influence of giniquine on biosynthetic processes in the in vivo tests was studied on common white mice of a mass of 25-35 g with Ehrlich ascitic tumor.
The mice were divided into two groups. The animals in the first group were given a single injection of the preparation in differing doses, and the animals in the second group were treated with distilled water. Three series of experiments were conducted. In the first series of tests (16 mice) the preparation was injected in a dose of 100 mg/kg ([…] dose), and the animals were decapitated one hour after the injection; in the second test series (16 mice) the animals were slaughtered 3 hours after the injection with other conditions being the same. In the third test series (35 mice) the influence of giniquine on plastic metabolism in tumor cells and normal tissues was studied 24 hours after the injection of a 0.33% solution of the preparation in a dose of 28 mg/kg (therapeutical dose).
Labeled precursors of nucleic acids and protein were injected intraperitoneally one hour before the slaughter of the animals (50 μc/100 g). Ascitic fluid, as well as liver and spleen, mucous membrane of small intestine, brain, kidneys and lungs were taken for analysis. 10% suspension was prepared from tumor cells, and 10% homogenates were prepared from tissues in a physiological solution.
Tumor cells and tissue homogenates for precipitation of nucleic acids were treated with 57% perchloric acid (10:1). […] Radioactivity of DNA and RNA fractions was measured by means of a liquid scintillation counter. The quantity of DNA and RNA was determined by spectrophotometry: the quantity of DNA was determined with diphenylamine, and RNA- with orcin.
To prepare protein hydrolysate, the suspension of tumoral cells and homogenates of normal tissues were treated with cool 10% trichloracetic acid (1:4), with subsequent centrifuging at 2000 g for ten minutes. […] The radioactivity was measured by means of a liquid scintillation counter. Protein was quantitatively determined by spectrophotometry using a microbiuret reaction.

SMILES: CCN(CC)CCCC(C)NC(=O)c1cc(C=Cc2ccc([N+](=O)[O-])o2)nc2ccccc12 (stereo not drawn) [giniquine, 2-[2'-(5"-nitrofuryl-2")vinyl]quinoline-4-carboxylic acid (α-methyl-δ-diethylaminobutyl)amide triphosphate]
- time of detection in blood ([1]; blood): as early as in five minutes
- Cmax at 0.5 h ([1]; rat, blood, ip, 30 minutes, read-out: maximum level in blood): 23000 ng/mL
- Tmax ([1]; rat, ip, blood, read-out: time of maximum level in blood (converted)): 30 min
- Cmax ([1]; rat, ip, liver, read-out: maximum concentration in liver): 28000 ng/mL
- Tmax ([1]; rat, ip, liver, read-out: time of maximum concentration in liver (converted)): 20 min
- concentration at 1 h ([1]; rat, serum, ip, 60 minutes, read-out: content in blood serum): 3000 ng/mL
- Incorporation of 2-^14 C-thymidine in DNA in % of control ([2]; 0.1% solution): 2.4 % of control
- suppression of biosynthesis of DNA in tumor cells (in words) ([2]; 0.3% solution): practically complete suppression
- activity at 100 µM ([2]; Mus musculus, Ehrlich, read-out: Incorporation of 2-^14 C-leucine in percent of control): 86%
- activity at 100 µM ([2]; Mus musculus, Ehrlich, read-out: Incorporation of 2-^14 C-thymidine in percent of control): 61%
- activity at 100 µM ([2]; Mus musculus, Ehrlich, read-out: Incorporation of 2-^14 C-uridine in percent of control): 52%
- activity at 0.1 % ([2]; Mus musculus, Ehrlich, 0.1% solution, read-out: Incorporation of 2-^14 C-thymidine in DNA in % of control): 2.4%
- activity at 0.3 % ([2]; Mus musculus, Ehrlich, 0.3% solution, read-out: Incorporation of 2-^14 C-thymidine in DNA in % of control): 0.7%
- incorporation of labeled precursors in DNA, RNA and protein (in words) ([2]; in vitro): decelerates the incorporation of labeled precursors in DNA, RNA and protein
- Incorporation of specific precursors, DNA (Kidneys): 178.0 % of control
- Incorporation of specific precursors, Protein (Kidneys): 105.0 % of control
- Incorporation of specific precursors, RNA (Kidneys): 148.0 % of control
- germicidal activity (Germicidal activity): exhibits a germicidal activity; also recorded: combines in itself both actions
